Assay results from patent US11529317B2, “Method of preparing silica nanocapsules and silica nanocapsules” (Agency for Science, Technology and Research, priority 2017, dated 2022).

Assay: Timed release of glycerol in aqueous media, standard enzymatic assay
Type: physicochemical
Settings: control
Method: In this example, timed release studies were conducted on the glycerol loaded silica nanocapsules in accordance with various embodiments disclosed herein. Firstly, the synthesized silica nano lens particles were loaded with glycerol. Then, they were suspended in aqueous media and compared with controls.
The percentage of glycerol released from the lens-shaped particles over a period of 80 minutes is estimated using standard enzymatic assay and the results are shown in FIG. 12. […] On the other hand, encapsulated glycerol is released gradually from the lens-shaped particles over a period of approximately two hours.

## OCC(O)CO [unencapsulated glycerol, glycerol]
  dissolution of glycerol in water: instantly dissolves
